Reference: US8937078B2, “Quinazolinones as prolyl hydroxylase inhibitors” (Janssen Pharmaceutica NV, priority 2009, dated 2015)
Entries after “also recorded” stand apart in the source; their conditions may differ.

Columns and labels:
human PHD2 (PHD2181-417) = biological target: T1, human PHD2 (PHD2181-417) (Homo sapiens, UniProt Q9GZT9); assay: PHD enzymatic assay ([14C]-succinic acid production); assay type: biochemical; details: PHD2181-417, HIF-1α peptide 10 μM, average of results; read-out: Enzyme pIC50 (converted)
T1 construct: Smt (SUMO) tag (cleaved yes); made in house; host or cells: E. coli BL21 (pBAD vector)
T1 sequence (Q9GZT9 181-417): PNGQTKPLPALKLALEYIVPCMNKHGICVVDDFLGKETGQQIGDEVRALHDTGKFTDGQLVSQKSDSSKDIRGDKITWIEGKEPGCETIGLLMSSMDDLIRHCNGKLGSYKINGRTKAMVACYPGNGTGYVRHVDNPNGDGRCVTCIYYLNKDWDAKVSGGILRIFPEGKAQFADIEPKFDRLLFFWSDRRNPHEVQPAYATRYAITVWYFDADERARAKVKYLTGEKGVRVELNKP
Outline: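 Activity measured as [14C]-succinic acid formed from [5-14C]-2-oxoglutarate over 10 minutes, with peptide substrate at 10 μM, in Tris-HCl pH 7.5 buffer containing catalase, DTT and ascorbate. Unreacted oxoglutarate removed by DNP derivatisation; supernatant beta-counted.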

Hep-3B cells = assay: Cellular assay: erythropoietin secretion in Hep-3B cells; assay type: cell-based, human; details: Homo sapiens, Hep3B, 100 μM compound, 24 hours, percent of EPO secretion relative to assay control compound 7-[(4-Chloro-phenyl)-(5-methyl-isoxazol-3-ylamino)-methyl]-quinolin-8-ol, read-out: Cellular % EPO Stimulation
Outline: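 Hep-3B cells in DMEM with 10% FBS, treated 24 h after plating with compounds at 100 μM final for a further 24 h. Secreted EPO in supernatant measured by MSD electrochemiluminescence sandwich immunoassay with anti-EPO detection antibody.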

[1] = Canine study, histological analysis (single dose escalation then repeat dose); assay type: in vivo; set-up: key to Histology: Stomach / Histology: Testis/Epididymis / Histology: Bone Marrow / Histology: Lung / Histology: Heart / Histology: Test/Epididymis / Histology: Kidney: NSL: No Significant Lesion; details: oral by stomach tube
Procedure: Various animal models are assessed for histological analysis. In one example, a canine study was used to assess the effect of 1-[6-(2,6-dimethyl-phenoxy)-7-fluoro-4-oxo-3,4-dihydro-quinazolin-2-yl]-1H-pyrazole-4-carboxylic acid when administered orally by stomach tube in a Single Dose Escalation (SDE) phase, and then subsequently for up to 5 days during the Repeat Dose (RD) phase.

Compound: Cc1cccc(C)c1Oc1cc2c(=O)[nH]c(-n3cc(C(=O)O)cn3)nc2cc1F [Example 51, 1-[6-(2,6-Dimethyl-phenoxy)-7-fluoro-4-oxo-3,4-dihydro-quinazolin-2-yl]-1H-pyrazole-4-carboxylic acid]
- IC50 (human PHD2 (PHD2181-417)): 0.0251 µM
- Emax at 100 µM (Hep-3B cells): 100%
- Histology: Bone Marrow ([1]; 10 mg/kg/day-1001 (Male)): NSL
- Histology: Heart ([1]; 10 mg/kg/day-1001 (Male)): NSL
- Histology: Kidney ([1]; 10 mg/kg/day-1001 (Male)): Slight, bilateral, acute multi-focal; also recorded: Slight, pelvic mineral deposition (right
- Histology: Liver ([1]; 10 mg/kg/day-1001 (Male)): Slight, acute portal inflammation
- Histology: Lung ([1]; 10 mg/kg/day-1001 (Male)): NSL
- Histology: Spleen ([1]; 10 mg/kg/day-1001 (Male)): Mild EMH, with mild, increased; also recorded: Slight, intra-macrophage brown pigment
- Histology: Stomach ([1]; 10 mg/kg/day-1001 (Male)): NSL
- Histology: Testis/Epididymis ([1]; 10 mg/kg/day-1001 (Male)): NSL
- Histology: Bone Marrow ([1]; 10 mg/kg/day-1501 (female)): NSL
- Histology: Heart ([1]; 10 mg/kg/day-1501 (female)): NSL
- Histology: Kidney ([1]; 10 mg/kg/day-1501 (female)): NSL
- Histology: Liver ([1]; 10 mg/kg/day-1501 (female)): Slight, acute portal inflammation
- Histology: Lung ([1]; 10 mg/kg/day-1501 (female)): NSL
- Histology: Spleen ([1]; 10 mg/kg/day-1501 (female)): Mild EMH, with mild, increased; also recorded: Slight, intra-macrophage brown
- Histology: Stomach ([1]; 10 mg/kg/day-1501 (female)): NSL
- Histology: Bone Marrow ([1]; 45 mg/kg/day-2001 (Male)): BSL
- Histology: Heart ([1]; 45 mg/kg/day-2001 (Male)): NSL
- Histology: Kidney ([1]; 45 mg/kg/day-2001 (Male)): Slight, bilateral, acute multi-focal; also recorded: Multiple cysts with slight interstitial; also recorded: Slight, renal papillary mineralization
- Histology: Liver ([1]; 45 mg/kg/day-2001 (Male)): Mild, acute central-lobular inflammation
- Histology: Lung ([1]; 45 mg/kg/day-2001 (Male)): NSL
- Histology: Spleen ([1]; 45 mg/kg/day-2001 (Male)): Mild EMH; also recorded: Mild, increased megkaryocytes; also recorded: Slight intra-macrophage brown pigment
- Histology: Stomach ([1]; 45 mg/kg/day-2001 (Male)): NSL
- Histology: Test/Epididymis ([1]; 45 mg/kg/day-2001 (Male)): NSL
- Histology: Bone Marrow ([1]; 45 mg/kg/day-2501(female)): NSL
- Histology: Kidney ([1]; 45 mg/kg/day-2501(female)): Slight, bilateral, acute-multi-focal; also recorded: Slight tubular vacuolization
- Histology: Liver ([1]; 45 mg/kg/day-2501(female)): Mild bile duct hyperplasia; also recorded: Multifocal portal tract thrombosis; also recorded: Slight, Kupffer cell brown pigment
- Histology: Lung ([1]; 45 mg/kg/day-2501(female)): NSL
- Histology: Spleen ([1]; 45 mg/kg/day-2501(female)): Mild EMH; also recorded: Mild, increased megkaryocytes; also recorded: Slight intra-macrophage brown
- Histology: Stomach ([1]; 45 mg/kg/day-2501(female)): NSL
